Experiments:
[1] = biological target: Recombinant Human NF-Kappab-Inducing Kinase (NIK/MAP3K14) (Homo sapiens, UniProt Q99558); assay: Inhibition of auto-phosphorylation of recombinant human NIK/MAP3K14 (AlphaScreen); format: biochemical; conditions: NIK/MAP3K14 auto-phosphorylation, 5 microM ATP, 1 nM enzyme, 2 h at 25° C.; average of values; read-out: Assay 1 IC50
Procedure: Biological Assay 1: Inhibition of Auto-Phosphorylation of Recombinant Human NF-Kappab-Inducing Kinase (NIK/MAP3K14) Activity (AlphaScreen®)
NIK/MAP3K14 auto-phosphorylation activity was measured using the AlphaScreen® ((αscreen) format (Perkin ElmeR). All compounds tested were dissolved in dimethyl sulfoxide (DMSO) and further dilutions were made in assay buffer. Final DMSO concentration was 0.7% (v/v) in assays. Assay buffer was 50 mM Tris pH 7.5 containing 1 mM EGTA (ethylene glycol tetraacetic acid), 1 mM DTT (dithiothreitol), 0.1 mM Na3VO4, 5 mM MgCl2, 0.01% Tween® 20. Assays were carried out in 384 well Proxiplates (Perkin ElmeR). Incubations consisted of compound, 5 microM Adenosine-5′-triphosphate (ATP), and 1 nM NIK/MAP3K14. Incubations were initiated by addition of GST-tagged NIK/MAP3K14 enzyme, carried out for 2 h at 25° C. and terminated by addition of stop buffer containing anti-phospho-IKK Ser176/180 antibody. Protein A Acceptor and Glutathione-donor beads were added before reading using an EnVision® Multilabel Plate Reader (Perkin ElmeR). Signal obtained in the wells was normalized using high (full enzyme activity, 0.7% DMSO) and low controls (no enzyme activity, 0.7% DMSO, no ATP). IC50's were determined by fitting a sigmoidal curve to % inhibition of control versus Log10 compound concentration.

[2] = test system: p-IKKα levels in L363 (NIK translocated multiple myeloma) cells; assay: Effect of compounds on p-IKKα levels in L363 cells (AlphaLISA SureFire Ultra); format: cell-based; conditions: Homo sapiens, L-363; L363 cells, BAFF stimulated, MG132, 6 h; average of values; read-out: Assay 2 IC50
Procedure: Biological Assay 2: Effect of Compounds on p-IKKα Levels in L363 (NIK Translocated Multiple Myeloma) Cells
All compounds tested were dissolved and serially diluted in DMSO, 1:3 dilution for 11 points in an Echo compatible plate. 100% DMSO is added to columns 12 and 24 of the plate to serve as high and low signal controls. This compound plate was used to spot 20 nl of compound or DMSO into a Greiner 384 well TC plate (781080). Final DMSO concentration was […] (v/v) in cell assays. Human L363 cells (ATCC) were cultured in RPMI 1640 medium supplemented with GlutaMax, non-essential amino acids, sodium pyruvate and 10% fetal bovine serum. Cells were routinely maintained at densities of 0.2×10^6 cells per ml −2×10^6 cells per ml at 37° C. in a humidified 5% CO2 atmosphere incubator. Cells were passaged twice a week splitting back to obtain the low density. The day before the assay, cells were washed twice in HBSS, resuspended in DMEM+0.5% IgG and protease free BSA (Jackson Immuno Research Laboratories), +/−250 ng/ml recombinant human B-cell activating factor (BAFF/BLyS/TNFSF13B) and incubated overnight at 37° C. in a humidified 5% CO2 atmosphere (bulk stimulation with or without BAFF). The next day, cell concentration was adjusted to 1×10^7 cells/ml in DMEM+/−250 ng/ml BAFF+/−10 uM MG132 and plated at 10 ul/well into compound or DMSO spotted 384 well TC plates. Seeded cells were incubated at 37° C. in a humidified 5% CO2 atmosphere for 6 h. After 6 h, plates were removed from the incubator and cell lysis was achieved by the addition of 2.5 μl 5× lysis buffer containing protease and phosphatase inhibitors, followed by shaking on a plate shaker at room temperature for 15 min. At the end of this incubation, lysed cells were sequentially treated and incubated with acceptor and donor bead mixes according to the manufacturer's protocol for a 1 plate/2-incubation suspension cell assay (AlphaLISA SureFire Ultra p-IKKα (Ser 176/180) Assay Kit (Perkin ElmeR). Plates were read using an EnVision® Multilabel Plate Reader (Perkin ElmeR). Within an experiment, a concentration response curve for each compound was run in duplicate. Signal obtained in the test wells was normalized using high signal (BAFF stimulated cells, DMSO, MG132) and low signal (unstimulated cells, DMSO) controls. To determine the IC50, a sigmoidal curve was fitted to the plot of % inhibition versus Log10 compound concentration.

Recombinant Human NF-Kappab-Inducing Kinase (NIK/MAP3K14), sequence (Q99558 whole entry): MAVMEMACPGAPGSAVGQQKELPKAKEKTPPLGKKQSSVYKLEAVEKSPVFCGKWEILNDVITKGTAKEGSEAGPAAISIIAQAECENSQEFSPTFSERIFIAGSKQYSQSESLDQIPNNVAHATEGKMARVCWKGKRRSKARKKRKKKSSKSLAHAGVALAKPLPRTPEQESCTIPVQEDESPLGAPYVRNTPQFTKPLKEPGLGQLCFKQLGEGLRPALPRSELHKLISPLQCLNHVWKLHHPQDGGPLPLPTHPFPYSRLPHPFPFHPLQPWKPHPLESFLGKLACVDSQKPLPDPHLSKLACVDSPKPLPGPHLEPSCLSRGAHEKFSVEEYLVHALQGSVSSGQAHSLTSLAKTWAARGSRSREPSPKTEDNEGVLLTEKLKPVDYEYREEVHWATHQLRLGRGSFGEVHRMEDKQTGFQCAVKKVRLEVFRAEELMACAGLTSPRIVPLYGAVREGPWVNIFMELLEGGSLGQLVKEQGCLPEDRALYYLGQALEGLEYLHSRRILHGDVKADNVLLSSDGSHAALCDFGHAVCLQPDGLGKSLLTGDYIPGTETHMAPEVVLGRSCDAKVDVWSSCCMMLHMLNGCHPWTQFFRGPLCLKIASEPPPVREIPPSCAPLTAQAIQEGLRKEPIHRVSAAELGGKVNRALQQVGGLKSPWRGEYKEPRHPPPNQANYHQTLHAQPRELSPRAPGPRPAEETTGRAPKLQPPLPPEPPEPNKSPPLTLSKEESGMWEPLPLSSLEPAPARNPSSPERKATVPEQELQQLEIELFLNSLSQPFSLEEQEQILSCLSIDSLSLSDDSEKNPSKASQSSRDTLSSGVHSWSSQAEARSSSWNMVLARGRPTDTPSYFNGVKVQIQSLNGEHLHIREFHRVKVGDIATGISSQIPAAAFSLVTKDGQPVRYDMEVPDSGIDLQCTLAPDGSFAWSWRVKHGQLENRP

Compound: CC(=O)N1CC(Nc2sc(-c3cccc(-c4cc([C@]5(O)CCN(C)C5=O)on4)c3)nc2C(N)=O)C1 [Example 216, (R)-5-((1-Acetylazetidin-3-yl)amino)-2-(3-(5-(3-hydroxy-1-methyl-2-oxopyrrolidin-3-yl)isoxazol-3-yl)phenyl)thiazole-4-carboxamide]
- IC50 [1]: < 100 nM
- IC50 [2]: > 501 nM

Compound: CCc1sc(-c2cccc(-c3cc([C@]4(O)CCN(C)C4=O)on3)c2)nc1C(N)=O [Example 218, (R)-5-Ethyl-2-(3-(5-(3-hydroxy-1-methyl-2-oxopyrrolidin-3-yl)isoxazol-3-yl)phenyl)thiazole-4-carboxamide]
- IC50 [1]: < 100 nM
- IC50 [2]: 100 to 500 nM

Compound: CN1CC[C@@](O)(c2cc(-c3cccc(-c4cc5c[nH]nc5cn4)c3)no2)C1=O [Example 75, (R)-3-(3-(3-(2H-pyrazolo[3,4-c]pyridin-5-yl)phenyl)isoxazol-5-yl)-3-hydroxy-1-methylpyrrolidin-2-one]
- IC50 [1]: 100 to 500 nM
- IC50 [2]: > 501 nM

Compound: CN1CC[C@@](O)(c2cc(-c3cccc(-c4ncnc5sccc45)c3)no2)C1=O [Example 72, (R)-3-Hydroxy-1-methyl-3-(3-(3-(thieno[2,3-d]pyrimidin-4-yl)phenyl)isoxazol-5-yl)pyrrolidin-2-one]
- IC50 [1]: > 501 nM
- IC50 [2]: > 501 nM

Compound: Cc1n[nH]c2nc(-c3cccc(-c4cc([C@]5(O)CCN(C)C5=O)on4)c3)cc(C(N)=O)c12 [Example 84, (R)-6-(3-(5-(3-Hydroxy-1-methyl-2-oxopyrrolidin-3-yl)isoxazol-3-yl)phenyl)-3-methyl-1H-pyrazolo[3,4-b]pyridine-4-carboxamide]
- IC50 [1]: > 501 nM
- IC50 [2]: > 501 nM

Compound: CN1CC[C@@](O)(c2cc(-c3cccc(-c4nc(C(N)=O)c(CNc5ccn(C)n5)s4)c3)no2)C1=O [Example 238, (R)-2-(3-(5-(3-Hydroxy-1-methyl-2-oxopyrrolidin-3-yl)isoxazol-3-yl)phenyl)-5-(((1-methyl-1H-pyrazol-3-yl)amino)methyl)thiazole-4-carboxamide]
- IC50 [1]: < 100 nM
- IC50 [2]: 100 to 500 nM

Compound: CN1CC[C@@](O)(c2cc(-c3cccc(-c4cnc(N)c(C(N)=O)n4)c3)no2)C1=O [Example 110, (R)-3-Amino-6-(3-(5-(3-hydroxy-1-methyl-2-oxopyrrolidin-3-yl)isoxazol-3-yl)phenyl)pyrazine-2-carboxamide]
- IC50 [1]: < 100 nM
- IC50 [2]: < 100 nM

Compound: CN1CC[C@@](O)(c2cc(-c3cccc(-n4nc(C(N)=O)c5c4CCCC5)c3)no2)C1=O [Example 102, (R)-1-(3-(5-(3-Hydroxy-1-methyl-2-oxopyrrolidin-3-yl)isoxazol-3-yl)phenyl)-4,5,6,7-tetrahydro-1H-indazole-3-carboxamide]
- IC50 [1]: < 100 nM
- IC50 [2]: > 501 nM

Compound: CN1CC[C@@](O)(c2cc(-c3cccc(-c4ncc(N[C@@H]5CCOC5)c(C(N)=O)n4)c3)no2)C1=O [Example 129, 2-(3-(5-((R)-3-hydroxy-1-methyl-2-oxopyrrolidin-3-yl)isoxazol-3-yl)phenyl)-5-(((R)-tetrahydrofuran-3-yl)amino)pyrimidine-4-carboxamide]
- IC50 [1]: < 100 nM
- IC50 [2]: < 100 nM

Compound: CN1CC[C@@](O)(c2cc(-c3cccc(-c4nc(C(N)=O)n5c4CCCC5)c3)no2)C1=O [Example 93, (R)-1-(3-(5-(3-Hydroxy-1-methyl-2-oxopyrrolidin-3-yl)isoxazol-3-yl)phenyl)-5,6,7,8-tetrahydroimidazo[1,5-a]pyridine-3-carboxamide]
- IC50 [1]: < 100 nM
- IC50 [2]: < 100 nM

Compound: CN1CC[C@@](O)(c2cc(-c3cccc(-c4nc(C(N)=O)cs4)c3)no2)C1=O [Example 204, (R)-2-(3-(5-(3-Hydroxy-1-methyl-2-oxopyrrolidin-3-yl)isoxazol-3-yl)phenyl)thiazole-4-carboxamide]
- IC50 [1]: < 100 nM
- IC50 [2]: > 501 nM

Compound: CN1CC[C@@](O)(c2cc(-c3cccc(-c4ccc5[nH]nc(N)c5n4)c3)no2)C1=O [Example 4, (R)-3-(3-(3-(3-Amino-1H-pyrazolo[4,3-b]pyridin-5-yl)phenyl)isoxazol-5-yl)-3-hydroxy-1-methylpyrrolidin-2-one]
- IC50 [1]: < 100 nM
- IC50 [2]: > 501 nM

Compound: CCn1cnc2c(C(N)=O)nc(-c3cccc(-c4cc([C@]5(O)CCN(C)C5=O)on4)c3)cc21 [Example 90, (R)-1-Ethyl-6-(3-(5-(3-hydroxy-1-methyl-2-oxopyrrolidin-3-yl)isoxazol-3-yl)phenyl)-1H-imidazo[4,5-c]pyridine-4-carboxamide]
- IC50 [1]: 100 to 500 nM
- IC50 [2]: > 501 nM

Compound: CN1CC[C@@](O)(c2cc(-c3cccc(-c4ccc5cncn5c4)c3)no2)C1=O [Example 51, (R)-3-Hydroxy-3-(3-(3-(imidazo[1,5-a]pyridin-6-yl)phenyl)isoxazol-5-yl)-1-methylpyrrolidin-2-one]
- IC50 [1]: 100 to 500 nM
- IC50 [2]: > 501 nM

Compound: CN1CC[C@@](O)(c2cc(-c3cccc(-c4cc(-c5c[nH]nc5C5CC5)cc(C(N)=O)n4)c3)no2)C1=O [Example 190, (R)-4-(3-Cyclopropyl-1H-pyrazol-4-yl)-6-(3-(5-(3-hydroxy-1-methyl-2-oxopyrrolidin-3-yl)isoxazol-3-yl)phenyl)picolinamide]
- IC50 [1]: < 100 nM
- IC50 [2]: > 501 nM

Compound: CN1CC[C@@](O)(c2cc(-c3cc(-c4cc(C5CC5)c(N)c(C(N)=O)n4)ccc3F)no2)C1=O [Example 244, (R)-3-Amino-4-cyclopropyl-6-(4-fluoro-3-(5-(3-hydroxy-1-methyl-2-oxopyrrolidin-3-yl)isoxazol-3-yl)phenyl)picolinamide]
- IC50 [1]: < 100 nM
- IC50 [2]: > 501 nM

Compound: CN1CC[C@@](O)(c2cc(-c3cccc(-c4cccc(C(N)=O)c4)c3)no2)C1=O [Example 157, (R)-3′-(5-(3-Hydroxy-1-methyl-2-oxopyrrolidin-3-yl)isoxazol-3-yl)-[1,1′-biphenyl]-3-carboxamide]
- IC50 [1]: > 501 nM
- IC50 [2]: > 501 nM

Compound: Cc1ncc(-c2cc(C(N)=O)nc(-c3cccc(-c4cc([C@]5(O)CCN(C)C5=O)on4)c3)c2)o1 [Example 186, (R)-6-(3-(5-(3-Hydroxy-1-methyl-2-oxopyrrolidin-3-yl)isoxazol-3-yl)phenyl)-4-(2-methyloxazol-5-yl)picolinamide]
- IC50 [1]: < 100 nM
- IC50 [2]: 100 to 500 nM

Compound: CNc1sc(-c2cccc(-c3cc([C@]4(O)CCN(C)C4=O)on3)c2)nc1C(N)=O [Example 209, (R)-2-(3-(5-(3-Hydroxy-1-methyl-2-oxopyrrolidin-3-yl)isoxazol-3-yl)phenyl)-5-(methylamino)thiazole-4-carboxamide]
- IC50 [1]: < 100 nM
- IC50 [2]: < 100 nM

Compound: CN1CC[C@@](O)(c2cc(-c3cccc(-c4ncc5ccnc(N)c5n4)c3)no2)C1=O [Example 10, (R)-3-(3-(3-(8-Aminopyrido[3,4-d]pyrimidin-2-yl)phenyl)isoxazol-5-yl)-3-hydroxy-1-methylpyrrolidin-2-one]
- IC50 [1]: < 100 nM
- IC50 [2]: > 501 nM

Compound: CN1CC[C@@](O)(c2cc(-c3ccnc(-n4nc(C(N)=O)c5ccccc54)c3)no2)C1=O [Example 22, (R)-1-(4-(5-(3-Hydroxy-1-methyl-2-oxopyrrolidin-3-yl)isoxazol-3-yl)pyridin-2-yl)-1H-indazole-3-carboxamide]
- IC50 [1]: < 100 nM
- IC50 [2]: < 100 nM

From patent US20250282785A1, “PYRROLIDINONE DERIVATIVES AS INHIBITORS OF NF KAPPA B INDUCING KINASE” (priority 2022, published 2025)
